# Reference: patent US11186589B2, “Cyanoindoline derivatives as NIK inhibitors” (Janssen Pharmaceutica NV, priority 2016, dated 2021)
# Like-named read-outs stand apart in the source and are kept apart here.
# What was measured:
# KMS12-BM cells = test: Antiproliferative activity on KMS12-BM (NIK WT) multiple myeloma cells (CellTiter-Glo); type: cell-based, human; conditions: 96 hr treatment, averaged values, read-out: KMS-12 Proliferation inhibition (IC50 (nM))
# Procedure: (§1) Determination of Antiproliferative Activity on JJN-3 (NIK Translocated) and KMS12-BM (NIK WT) Multiple Myeloma Cells
# (§2) All compounds tested were dissolved in DMSO and further dilutions were made in culture medium. Final DMSO concentration was 0.3% (v/v) in cell proliferation assays. Viability was assessed using CellTiter-Glo cell viability assay kit (Promega). The human JJN-3 and KMS12-BM cells (DSMZ) were cultured in RPMI 1640 medium supplemented with 2 mM L-glutamine, and 10% fetal calf serum (PAA). Cells were routinely kept as suspension cells at 37° C. in a humidified 5% CO2 atmosphere. Cells were passaged at a seeding density of 0.2×10^6/ml twice a week. Cells were seeded in black tissue culture treated 96-well plates (Perkin Elmer). Densities used for plating ranged from 15000 (JJN3) to 20000 (KMS12BM) cells per well in a total volume of […]. Drugs and/or solvents were added (15 μl) to a final volume of 150 μl. Following 96 hr of treatment, plates were removed from the incubator and allowed to equilibrate to room temperature for approx 10 min. 75 μl CellTiter-Glo reagent was added to each well that was then covered (Perkin Elmer Topseal) and shaken on plate shaker for 10 min. Luminescence was measured on a HTS Topcount (Perkin Elmer). Within an experiment, the results for each treatment were the mean of 2 replicate wells. For initial screening purposes, compounds were tested using a 9 point dilution curve (serial 1:3 dilutions). For each experiment, controls (containing no drug) and a blank incubation (containing cells read at the time of compound addition) were run in parallel. The blank value was subtracted from all control and sample values. For each sample, the mean value for cell growth (in relative light units) was expressed as a percentage of the mean value for cell growth of the control.
# JJN-3 cells = test: Antiproliferative activity on JJN-3 (NIK translocated) multiple myeloma cells (CellTiter-Glo); type: cell-based, human; conditions: JJN-3 (NIK translocated) cells, 96 hr treatment, averaged values, read-out: JJN-3 Proliferation inhibition (IC50 (nM))
# Procedure: as §1, §2
# NIK/MAP3K14 = NIK/MAP3K14 (Homo sapiens (Human), UniProt Q99558); test: Inhibition of auto-phosphorylation of recombinant human NF-kappaB-inducing kinase (NIK/MAP3K14) activity (AlphaScreen); type: biochemical; conditions: averaged values over all measurements on all batches, 25 microM ATP
# Procedure: Inhibition of Auto-Phosphorylation of Recombinant Human NF-kappaB-Inducing Kinase ([…]) Activity (AlphaScreen®)
# NIK/MAP3K14 auto-phosphorylation activity was measured using the AlphaScreen® (αscreen) format (Perkin Elmer). All compounds tested were dissolved in dimethyl sulfoxide (DMSO) and further dilutions were made in assay buffer. Final DMSO concentration was […] in assays. Assay buffer was 50 mM Tris pH 7.5 containing 1 mM EGTA (ethylene glycol tetraacetic acid), 1 mM DTT (dithiothreitol), 0.1 mM Na3VO4, 5 mM MgCl2, 0.01% Tween® 20. Assays were carried out in 384 well Alphaplates (Perkin Elmer). Incubations consisted of compound, 25 microM Adenosine-5′-triphosphate (ATP), and 0.2 nM NIK/MAP3K14. Incubations were initiated by addition of GST-tagged NIK/MAP3K14 enzyme, carried out for 1 h at 25° C. and terminated by addition of stop buffer containing anti-phospho-[…] Ser176/180 antibody. Protein A Acceptor and Glutathione-Donor beads were added before reading using an EnVision® Multilabel Plate Reader (Perkin Elmer). Signal obtained in the wells containing blank samples was subtracted from all other wells and IC50's were determined by fitting a sigmoidal curve to % inhibition of control versus Log10 compound concentration.
# Chain of NIK/MAP3K14 (Q99558 whole entry): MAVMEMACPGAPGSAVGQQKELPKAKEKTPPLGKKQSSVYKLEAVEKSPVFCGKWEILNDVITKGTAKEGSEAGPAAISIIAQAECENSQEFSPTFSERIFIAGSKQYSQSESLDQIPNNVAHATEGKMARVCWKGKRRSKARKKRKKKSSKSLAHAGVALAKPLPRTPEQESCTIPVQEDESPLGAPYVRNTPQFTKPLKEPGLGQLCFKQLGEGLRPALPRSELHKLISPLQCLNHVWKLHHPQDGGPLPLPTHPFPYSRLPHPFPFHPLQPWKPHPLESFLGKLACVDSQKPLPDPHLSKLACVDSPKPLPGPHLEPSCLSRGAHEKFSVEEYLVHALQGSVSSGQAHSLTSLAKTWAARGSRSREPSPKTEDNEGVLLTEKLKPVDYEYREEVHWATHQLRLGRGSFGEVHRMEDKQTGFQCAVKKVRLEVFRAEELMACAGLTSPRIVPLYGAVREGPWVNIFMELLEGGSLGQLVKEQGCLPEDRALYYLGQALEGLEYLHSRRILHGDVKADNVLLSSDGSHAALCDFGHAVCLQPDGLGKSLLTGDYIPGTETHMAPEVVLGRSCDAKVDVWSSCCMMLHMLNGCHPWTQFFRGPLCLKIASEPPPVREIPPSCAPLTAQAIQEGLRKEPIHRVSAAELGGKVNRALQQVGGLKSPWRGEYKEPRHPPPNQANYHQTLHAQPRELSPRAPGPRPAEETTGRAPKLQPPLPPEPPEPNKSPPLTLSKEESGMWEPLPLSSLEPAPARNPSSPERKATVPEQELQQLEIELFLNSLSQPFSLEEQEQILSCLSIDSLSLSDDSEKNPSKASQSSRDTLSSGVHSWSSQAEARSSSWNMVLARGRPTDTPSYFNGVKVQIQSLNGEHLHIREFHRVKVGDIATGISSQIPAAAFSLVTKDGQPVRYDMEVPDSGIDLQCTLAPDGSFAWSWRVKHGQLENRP
Structure (SMILES),"IC50 (KMS12-BM cells; Homo sapiens, KMS-12-BM, 96 h)","IC50 (JJN-3 cells; Homo sapiens, JJN-3, 96 h)",IC50 (NIK/MAP3K14),IC50 (KMS12-BM cells),IC50 (JJN-3 cells)
CC1(CO)CNc2c(C#N)cc(-c3ccnc(Nc4cc(Cl)cc5c4CCN5)n3)cc21 (stereo not shown) [Compound 10],~5750 nM,42 nM,4.9 nM,,
CN(C)C(=O)C1COc2c(cc(Cl)cc2Nc2nccc(-c3cc(C#N)c4c(c3)[C@@](C)(CO)CN4)n2)C1 (stereo partly shown) [Compound 11],,36 nM,9.1 nM,1180 nM,
CC1(CO)CNc2c(C#N)cc(-c3ccnc(Nc4ccc5c(c4)CCCO5)n3)cc21 (stereo not shown) [Compound 1],550 nM,96 nM,5.9 nM,,
CN(C)CC(=O)N1CCc2c(Nc3nccc(-c4cc(C#N)c5c(c4)[C@@](C)(CO)CN5)n3)cc(Cl)cc21 [Compound 13],~3550 nM,18 nM,1.3 nM,,
CN(C)C(=O)C1COc2c(cc(Cl)cc2Nc2nccc(-c3cc(C#N)c4c(c3)[C@@](C)(CO)CN4)n2)C1 (stereo partly shown) [Compound 12],,,14.1 nM,~6610 nM,22 nM
CN1CCc2ccc(Nc3nccc(-c4cc(C#N)c5c(c4)C(C)(CO)CN5)n3)cc2CC1 (stereo not shown) [Compound 3],85 nM,~24 nM,1.4 nM,,
CC1(CO)CNc2c(C#N)cc(-c3ccnc(Nc4cc(Cl)cc5c4ccn5CCN4CCOCC4)n3)cc21 (stereo not shown) [Compound 4c],~1020 nM,9 nM,9.6 nM,,
CN1Cc2cc(Nc3nccc(-c4cc(C#N)c5c(c4)C(C)(CO)CN5)n3)nn2CC1=O (stereo not shown) [Compound 8b],6170 nM,1150 nM,4 nM,,
CN1CCc2[nH]c(=O)c(Nc3nccc(-c4cc(C#N)c5c(c4)C(C)(CC(F)F)CN5)n3)cc2C1 (stereo not shown) [Compound 57],> 10000 nM,11200 nM,17.4 nM,,
CC(=O)N1CCc2c(C)c(Nc3nccc(-c4cc(C#N)c5c(c4)C(C)(CO)CN5)n3)cc(Cl)c21 (stereo not shown) [Compound 9],~2750 nM,25 nM,2 nM,,
CN1CCn2nc(Nc3nccc(-c4cc(C#N)c5c(c4)C(C)(CO)CN5)n3)cc2C1 (stereo not shown) [Compound 9b],1660 nM,204 nM,6.8 nM,,
COCCCc1cc2c(cc1Nc1nccc(-c3cc(C#N)c4c(c3)[C@@](C)(CO)CN4)n1)CCN(C)CC2 [Compound 20],1480 nM,372 nM,20.4 nM,,
CC1(CO)CNc2c(C#N)cc(-c3ccnc(Nc4cc(Cl)cc5c4ccn5CCCN4CCOCC4)n3)cc21 (stereo not shown) [Compound 5c],~692 nM,23 nM,12 nM,,
CNC(=O)CCn1ccc2c(Nc3nccc(-c4cc(C#N)c5c(c4)C(C)(CO)CN5)n3)cc(Cl)cc21 (stereo not shown) [Compound 11c],427 nM,16 nM,4.3 nM,,
Cc1c(Nc2nccc(-c3cc(C#N)c4c(c3)[C@@](C)(CO)CN4)n2)ccc2c1CCN2C(=O)CN(C)C [Compound 15],96 nM,89 nM,2.5 nM,,
"CC1(CO)CNc2c(C#N)cc(-c3ccnc(Nc4ccc5c(c4)CC(CO)OC5)n3)cc21 (single isomer, unassigned) [Compound 5]",151 nM,21 nM,1.9 nM,,
"CC1(CO)CNc2c(C#N)cc(-c3ccnc(Nc4ccc5c(c4)CC(CO)OC5)n3)cc21 (single isomer, unassigned) [Compound 8]",,,2 nM,162 nM,41 nM
CC1(CO)CNc2c(C#N)cc(-c3ccnc(Nc4cc(Cl)cc5c4OCCC5)n3)cc21 (stereo not shown) [Compound 4],> 10000 nM,107 nM,26.9 nM,,
Cn1nc2c(c1Nc1nccc(-c3cc(C#N)c4c(c3)C(C)(CO)CN4)n1)CCC2 (stereo not shown) [Compound 4b],~6460 nM,1900 nM,8.5 nM,,

Structure (SMILES),"IC50 (KMS12-BM cells; Homo sapiens, KMS-12-BM, 96 h)","IC50 (JJN-3 cells; Homo sapiens, JJN-3, 96 h)",IC50 (NIK/MAP3K14),IC50 (KMS12-BM cells),IC50 (JJN-3 cells)
CC1(CO)CNc2c(C#N)cc(-c3ccnc(Nc4cc5n(n4)CCOC5)n3)cc21 (stereo not shown) [Compound 7b],6310 nM,1700 nM,11.8 nM,,
CN(C)C1COc2c(cc(Cl)cc2Nc2nccc(-c3cc(C#N)c4c(c3)[C@@](C)(CO)CN4)n2)C1 (stereo partly shown) [Compound 17],,,3.3 nM,182 nM,5 nM
CC(C)c1c(Nc2nccc(-c3cc(C#N)c4c(c3)[C@@](C)(CO)CN4)n2)nn2c1CN(C)CC2 [Compound 16b],,,363 nM,,
Cc1c(Nc2nccc(-c3cc(C#N)c4c(c3)C(C)(CO)CN4)n2)cc(Cl)c2[nH]ccc12 (stereo not shown) [Compound 9c],5620 nM,1180 nM,10.5 nM,,
COCCn1nc2c(c1Nc1nccc(-c3cc(C#N)c4c(c3)[C@@](C)(CO)CN4)n1)CCC2 [Compound 11b],~1820 nM,1580 nM,39.8 nM,,
CC1(C)CNc2c(C#N)cc(-c3ccnc(Nc4cccc5c4CNC5)n3)cc21 [Compound 2],~177 nM,112 nM,4.3 nM,,
CC1(CO)CNc2c(C#N)cc(-c3ccnc(Nc4ccc5c(c4)C(F)(F)CCO5)n3)cc21 (stereo not shown) [Compound 7],525 nM,48 nM,5.9 nM,,
CC1(C)CNc2c(C#N)cc(-c3ccnc(Nc4cc(F)cc5[nH]ccc45)n3)cc21 [Compound 8c],> 10000 nM,85 nM,38 nM,,
CC1(CO)CNc2c(C#N)cc(-c3ccnc(Nc4cnc5c(c4)COCC5)n3)cc21 (stereo not shown) [Compound 45],~186 nM,~60 nM,2.7 nM,,
COCCCn1ccc2c(Nc3nccc(-c4cc(C#N)c5c(c4)C(C)(CO)CN5)n3)cc(Cl)cc21 (stereo not shown) [Compound 6c],1620 nM,10 nM,34.8 nM,,
CN(C)C(=O)C(=O)N1CCc2c(Nc3nccc(-c4cc(C#N)c5c(c4)[C@@](C)(CO)CN5)n3)cc(Cl)cc21 [Compound 19],~692 nM,6 nM,5 nM,,
COCCn1ccc2cc(Nc3nccc(-c4cc(C#N)c5c(c4)[C@@](C)(CO)CN5)n3)c(OC)nc21 [Compound 14c],> 10000 nM,63 nM,5.6 nM,,
Cc1c(Nc2nccc(-c3cc(C#N)c4c(c3)[C@@](C)(CO)CN4)n2)cc(Cl)c2c1CCN2C(=O)CN(C)C [Compound 16],~339 nM,26 nM,1.6 nM,,
CNC(=O)CN1CCc2c(Nc3nccc(-c4cc(C#N)c5c(c4)C(C)(CO)CN5)n3)cc(Cl)cc21 (stereo not shown) [Compound 14],251 nM,54 nM,3 nM,,
CC1OCCn2nc(Nc3nccc(-c4cc(C#N)c5c(c4)C(C)(CO)CN5)n3)cc21 (stereo not shown) [Compound 6b],~851 nM,398 nM,5.9 nM,,
Cn1nc(Nc2nccc(-c3cc(C#N)c4c(c3)C(C)(CO)CN4)n2)c2c1CCC2 (stereo not shown) [Compound 5b],> 10000 nM,468 nM,20.4 nM,,
CC1(C)CNc2c(C#N)cc(-c3ccnc(Nc4cccc5c4CNCC5)n3)cc21 [Compound 6],794 nM,263 nM,12.6 nM,,
CC1(C)Cn2nc(Nc3nccc(-c4cc(C#N)c5c(c4)C(C)(CO)CN5)n3)cc2CO1 (stereo not shown) [Compound 10b],2400 nM,1020 nM,9.6 nM,,
COc1nc2c(ccn2CC(=O)N(C)C)cc1Nc1nccc(-c2cc(C#N)c3c(c2)[C@@](C)(CO)CN3)n1 [Compound 10c],> 10000 nM,63 nM,4.3 nM,,
